Experimental data from patent US11147272B2, “Pyridone compounds and agricultural and horticultural fungicides comprising the same as active ingredients” (MITSUI CHEMICALS AGRO, INC., priority 2017, dated 2021).

Assays:
Plasmopara viticola = assay: Test Example G: Downy mildew on vine; conditions: Downy mildew on vine; 250 ppm spray, 7 to 10 days after inoculation
Puccinia recondita = assay: Test Example E: Brown rust on wheat; format: in vivo; conditions: Brown rust on wheat; control value class
[1] = tested on: Blumeria graminis f. sp. hordei; assay: Test Example D: Powdery mildew on barley; conditions: Powdery mildew on barley; control value class
Phytophthora infestans = assay: whole plant or invertebrate; format: in vivo; conditions: Late blight on tomato; control value class
Alternaia brassicicola = assay: Test Example C: Alternaria sooty spot on cabbage; format: in vivo; conditions: Alternaria sooty spot on cabbage; control value class
Text: Seeds of a test plant (cabbage variety: Shikidori) were planted and cultivated until the cotyledons extended.
<Control Value> Control value=100{1−(n/3)}

[2] = tested on: Colletotrichum orbiculare; assay: Test Example H: Anthracnose on cucumber; conditions: Anthracnose on cucumber; 250 ppm spray, 6 to 10 days after inoculation
Magnaporthe grisea = assay: whole plant or invertebrate; format: in vivo; conditions: Blast on rice; control value class
Botrytis cinerea = assay: Test Example B: Gray mold on tomato; conditions: Gray mold on tomato; control value class

Row | Structure (SMILES) | Test G control value (Plasmopara viticola) | Test E control value (Puccinia recondita) | Test D control value [1] | Test F control value (Phytophthora infestans) | Test C control value (Alternaia brassicicola) | Test H control value [2] | Test A control value (Magnaporthe grisea) | Test B control value (Botrytis cinerea)
1 | C=C(c1cc(Cl)c(=O)n(CC)c1-c1c(F)cc(F)cc1F)C(C)C [compound 243] | L (50% or less control value) | H (more than 50% control value) | H (more than 50% control value) | L (50% or less control value) | H (more than 50% control value) | H (more than 50% control value) | H (more than 50% control value) | H (more than 50% control value)
2 | CCn1c(-c2c(F)cc(F)cc2F)c(C(C)(O)C2CCCC2)cc(Cl)c1=O (stereo not shown) [compound 244] | L (50% or less control value) | H (more than 50% control value) | H (more than 50% control value) | L (50% or less control value) | H (more than 50% control value) | H (more than 50% control value) | H (more than 50% control value) | H (more than 50% control value)
3 | CCn1c(-c2c(F)cc(F)cc2F)c(C(C)(OC)C2CCCC2)cc(Cl)c1=O (stereo not shown) [compound 245] | L (50% or less control value) | L (50% or less control value) | L (50% or less control value) | L (50% or less control value) | H (more than 50% control value) | L (50% or less control value) | L (50% or less control value) | L (50% or less control value)
4 | CCn1c(-c2ccc(OC)cc2)c(C(O)C(C)C)cc(Cl)c1=O (stereo not shown) [compound 246] | L (50% or less control value) | H (more than 50% control value) | L (50% or less control value) | L (50% or less control value) | H (more than 50% control value) | L (50% or less control value) | L (50% or less control value) | L (50% or less control value)
5 | CCOC(C)(c1cc(Cl)c(=O)n(CC)c1-c1ccc(OC)cc1)C(C)C (stereo not shown) [compound 247] | L (50% or less control value) | L (50% or less control value) | H (more than 50% control value) | L (50% or less control value) | L (50% or less control value) | L (50% or less control value) | L (50% or less control value) | H (more than 50% control value)
6 | CCCOC(C)(c1cc(Cl)c(=O)n(CC)c1-c1ccc(OC)cc1)C(C)C (stereo not shown) [compound 248] | L (50% or less control value) | L (50% or less control value) | L (50% or less control value) | L (50% or less control value) | L (50% or less control value) | L (50% or less control value) | H (more than 50% control value) | L (50% or less control value)
7 | CCn1c(-c2ccc(OC)cc2)c(C(C)(F)C(C)C)cc(Cl)c1=O (stereo not shown) [compound 249] | L (50% or less control value) | H (more than 50% control value) | L (50% or less control value) | L (50% or less control value) | H (more than 50% control value) | H (more than 50% control value) | L (50% or less control value) | H (more than 50% control value)
8 | CCn1c(-c2ccc(C#N)cc2)c(C(C)(OC)C(C)C)cc(Cl)c1=O (stereo not shown) [compound 250] | L (50% or less control value) | H (more than 50% control value) | L (50% or less control value) | L (50% or less control value) | L (50% or less control value) | L (50% or less control value) | L (50% or less control value) | H (more than 50% control value)
9 | CCOC(C)(c1cc(Cl)c(=O)n(CC)c1-c1ccc(C#N)cc1)C(C)C (stereo not shown) [compound 251] | L (50% or less control value) | L (50% or less control value) | L (50% or less control value) | L (50% or less control value) | H (more than 50% control value) | L (50% or less control value) | L (50% or less control value) | L (50% or less control value)
10 | CCCOC(C)(c1cc(Cl)c(=O)n(CC)c1-c1ccc(C#N)cc1)C(C)C (stereo not shown) [compound 252] | L (50% or less control value) | L (50% or less control value) | L (50% or less control value) | L (50% or less control value) | L (50% or less control value) | L (50% or less control value) | H (more than 50% control value) | L (50% or less control value)
11 | CCn1c(-c2ccc(C#N)cc2)c(C(C)(F)C(C)C)cc(Cl)c1=O (stereo not shown) [compound 253] | L (50% or less control value) | L (50% or less control value) | L (50% or less control value) | L (50% or less control value) | H (more than 50% control value) | L (50% or less control value) | L (50% or less control value) | H (more than 50% control value)
12 | CCn1c(-c2ccc(O)cc2Cl)c(CC(C)C)cc(Cl)c1=O [compound 254] | L (50% or less control value) | H (more than 50% control value) | L (50% or less control value) | H (more than 50% control value) | H (more than 50% control value) | H (more than 50% control value) | L (50% or less control value) | H (more than 50% control value)
13 | CCn1c(-c2ccccc2F)c(CC(C)C)cc(Cl)c1=O [compound 255] | L (50% or less control value) | H (more than 50% control value) | H (more than 50% control value) | L (50% or less control value) | H (more than 50% control value) | H (more than 50% control value) | H (more than 50% control value) | H (more than 50% control value)
14 | CCOC(C)(c1cc(Cl)c(=O)n(CC)c1-c1c(F)cc(F)cc1F)C1CCCC1 (stereo not shown) [compound 256] | H (more than 50% control value) | H (more than 50% control value) | H (more than 50% control value) | L (50% or less control value) | L (50% or less control value) | L (50% or less control value) | L (50% or less control value) | L (50% or less control value)
15 | CCCOC(C)(c1cc(Cl)c(=O)n(CC)c1-c1c(F)cc(F)cc1F)C1CCCC1 (stereo not shown) [compound 257] | L (50% or less control value) | L (50% or less control value) | L (50% or less control value) | L (50% or less control value) | H (more than 50% control value) | H (more than 50% control value) | L (50% or less control value) | L (50% or less control value)
16 | CCn1c(-c2c(F)cc(F)cc2F)c(C(O)C2CC2)cc(Cl)c1=O (stereo not shown) [compound 258] | H (more than 50% control value) | H (more than 50% control value) | H (more than 50% control value) | L (50% or less control value) | H (more than 50% control value) | H (more than 50% control value) | H (more than 50% control value) | H (more than 50% control value)
17 | CCn1c(-c2c(F)cc(F)cc2F)c(C(OC(C)=O)C2CC2)cc(Cl)c1=O (stereo not shown) [compound 259] | H (more than 50% control value) | H (more than 50% control value) | H (more than 50% control value) | L (50% or less control value) | H (more than 50% control value) | H (more than 50% control value) | H (more than 50% control value) | H (more than 50% control value)
